# Source: article PMC8707861 (Tomography, 2021)
# Where two headings read alike, the source gives them in different places.
# Legend:
# [1] = tested on: P. aeruginosa ATCC 27,853; assay: In vitro binding of radioconjugate to bacteria; format: cell-based; conditions: Pseudomonas aeruginosa, 37 °C
# Method: (§1) Bacteria were cultured on Columbia Agar supplemented with 5% sheep blood (Graso Biotech, Starogard Gdański, Poland) at 37 °C in an aerobic atmosphere for 24 h. After incubation, a bacterial suspension with the turbidity 3 according to the McFarland standards (cell density approximately 9 × 10^8 CFU/mL) was prepared in PBS. […] The mixtures of bacteria and the radioconjugate were incubated in separated tubes for different time intervals at 37 °C without shaking. […] The supernatant was removed to a new tube, and the bacterial pellet was resuspended in 1 mL of PBS, then the sample was again centrifuged at 7000 rpm for 5 min. After second centrifugation, the supernatant was removed to a new tube and the bacterial pellet was again resuspended in 1 mL of PBS. The radioactivity measurement was performed for all three fractions, two supernatants, and a final bacterial pellet suspension. Experiments for each incubation time were triplicate.
# S. aureus ATCC 25,923 = assay: In vitro binding of radioconjugate to bacteria; format: cell-based; conditions: Staphylococcus aureus, 37 °C
# Method: as §1
# [2] = human serum, 37 °C
# Method: In the case of stability studies in human serum (HS), the solution of isolated radioconjugate in PBS (0.1 mL) was added to 0.9 mL of the human serum and incubated at 37 °C. After time periods up to 4 h, 0.2 mL of the incubated serum mixture were withdrawn, mixed in an Eppendorf tube with 0.5 mL ethanol and vigorously shaken to precipitate proteins. After centrifuging (14,000 rpm for 5 min) the γ-radiation of both the supernatant and precipitate was measured using the well-type NaI(Tl) detector. To check whether the radioconjugate had not converted into other water-soluble radioactive species, aliquots of the supernatant were analysed by HPLC.
# [3] = Stability by incubation in 10 mM histidine solution (HPLC); format: physicochemical
# Method: (§2) After different time intervals the content of the solutions was tested by HPLC method.
# [4] = Stability by incubation in 10 mM cysteine solution (HPLC); format: physicochemical
# Method: as §2
# [5] = Paper electrophoresis analysis (charge of the molecule); format: physicochemical; conditions: 0.01 M phosphate buffer pH 7.40, 200 V, 45 min
# Method: Paper electrophoresis experiments were achieved on 20 × 1 cm chromatographic paper strips, Paper Chromedia GF 83 (Whatman), in the phosphate buffer (0.01 M, pH 7.40), using the midi horizontal electrophoresis unit (Sigma-Aldrich) device. For both radioconjugates, the experiments were carried out at 200 V (10 V cm^−1) for 45 min and then the distribution of radioactivity on the strips was determined using a Storage Phosphor System Cyclone Plus (Perkin-Elmer Life and Analytical Sciences, Downers Grove, IL, USA).
# [6] = n-octanol/PBS pH 7.40, triplicate
# Method: The lipophilicity of the radioconjugates was characterised by the determination of the logarithm of distribution coefficient, logD, in the n-octanol/PBS (pH 7.40) system, which mimics the physiological conditions (Product Properties Test Guidelines OPPTS 830.7550, 1996). The 1 mL PBS solution of a given radioconjugate previously isolated from reaction mixture was introduced to a test tube containing 1 mL of n-octanol and vortexed for 1 min. After that, the test tube was centrifuged for 5 min at 5800 rpm to ensure complete separation of the layers. The activity of each layer was measured, using a well-type NaI(Tl) detector. […] The logD measurements of all radioconjugates were performed in triplicate.
# [7] = period of four half-lives of the radionuclide
smiles,measurement,setting,value
O=C(O)C[N+]12CC[N+]34CC[N+]5(CC(=O)N6CCN(c7cc8c(cc7F)c(=O)c(C(=O)O)cn8C7CC7)CC6)CC[N+]6(CC1)CC(=O)[O][68Ga-3]2365[O]C(=O)C4 (centres unmarked) [[^68Ga]Ga-DOTA-CIP],Radioconjugate Uptake,[1]; binding time 30 min,0.82 ± 0.16%
same,Radioconjugate Uptake,[1]; binding time 60 min,1.29 ± 0.27%
same,Radioconjugate Uptake,"S. aureus ATCC 25,923; binding time 30 min",0.89 ± 0.11%
same,Radioconjugate Uptake,"S. aureus ATCC 25,923; binding time 60 min",1.1 ± 0.15%
same,% of intact radioconjugate after incubation in HS,[2]; after 0.5 h,~100%
same,% of intact radioconjugate after incubation in HS,[2]; after 1 h,~100%
same,% of intact radioconjugate after incubation in HS,[2]; after 4 h,~100%
same,Stability in HS (in words),[2]; for 68Ga period of four half-lives,completely stable
same,% of intact radioconjugate after incubation in HIS,"[3]; 10 mM HIS in PBS pH 7.4, 37 °C, after 4 h",~100%
same,Stability in HIS challenging solution (in words),[3]; [7],completely stable
same,% of intact radioconjugate after incubation in CYS,"[4]; 10 mM CYS in PBS pH 7.4, 37 °C, after 4 h",~100%
same,Stability in CYS challenging solution (in words),[4]; [7],completely stable
same,Charge of the molecule by electrophoresis,[5],Negative charge
same,logD,[6],−3.1 ± 0.1
